# Experimental data reported in patent US9656959B2, “Substituted pyridines as sodium channel blockers” (Purdue Pharma L.P., priority 2010, dated 2017).
# Read-outs that look alike come from different tables or passages of the source.
# Legend:
# human Nav1.7 = human Nav1.7 (Homo sapiens (Human), UniProt Q15858); assay: FLIPR or FLIPR TETRA sodium dye assay with KCl and test article pre-incubation; format: cell-based
# hNav1.7 = hNav1.7 (Homo sapiens (Human), UniProt Q15858); assay: Electrophysiology (EP) assay, whole-cell patch clamp; format: cell-based; details: hNav1.7 HEK-293 cells; for Ki: affinity for the inactivated state of the channel, read-out: Nav1.7 Activity (μM) EP assay Ki; for Kd: resting block dissociation constant, read-out: Nav1.7 Activity (μM) EP assay Kr
# Sequence of hNav1.7 (Q15858 other isoform, or with tags, fused parts or gaps): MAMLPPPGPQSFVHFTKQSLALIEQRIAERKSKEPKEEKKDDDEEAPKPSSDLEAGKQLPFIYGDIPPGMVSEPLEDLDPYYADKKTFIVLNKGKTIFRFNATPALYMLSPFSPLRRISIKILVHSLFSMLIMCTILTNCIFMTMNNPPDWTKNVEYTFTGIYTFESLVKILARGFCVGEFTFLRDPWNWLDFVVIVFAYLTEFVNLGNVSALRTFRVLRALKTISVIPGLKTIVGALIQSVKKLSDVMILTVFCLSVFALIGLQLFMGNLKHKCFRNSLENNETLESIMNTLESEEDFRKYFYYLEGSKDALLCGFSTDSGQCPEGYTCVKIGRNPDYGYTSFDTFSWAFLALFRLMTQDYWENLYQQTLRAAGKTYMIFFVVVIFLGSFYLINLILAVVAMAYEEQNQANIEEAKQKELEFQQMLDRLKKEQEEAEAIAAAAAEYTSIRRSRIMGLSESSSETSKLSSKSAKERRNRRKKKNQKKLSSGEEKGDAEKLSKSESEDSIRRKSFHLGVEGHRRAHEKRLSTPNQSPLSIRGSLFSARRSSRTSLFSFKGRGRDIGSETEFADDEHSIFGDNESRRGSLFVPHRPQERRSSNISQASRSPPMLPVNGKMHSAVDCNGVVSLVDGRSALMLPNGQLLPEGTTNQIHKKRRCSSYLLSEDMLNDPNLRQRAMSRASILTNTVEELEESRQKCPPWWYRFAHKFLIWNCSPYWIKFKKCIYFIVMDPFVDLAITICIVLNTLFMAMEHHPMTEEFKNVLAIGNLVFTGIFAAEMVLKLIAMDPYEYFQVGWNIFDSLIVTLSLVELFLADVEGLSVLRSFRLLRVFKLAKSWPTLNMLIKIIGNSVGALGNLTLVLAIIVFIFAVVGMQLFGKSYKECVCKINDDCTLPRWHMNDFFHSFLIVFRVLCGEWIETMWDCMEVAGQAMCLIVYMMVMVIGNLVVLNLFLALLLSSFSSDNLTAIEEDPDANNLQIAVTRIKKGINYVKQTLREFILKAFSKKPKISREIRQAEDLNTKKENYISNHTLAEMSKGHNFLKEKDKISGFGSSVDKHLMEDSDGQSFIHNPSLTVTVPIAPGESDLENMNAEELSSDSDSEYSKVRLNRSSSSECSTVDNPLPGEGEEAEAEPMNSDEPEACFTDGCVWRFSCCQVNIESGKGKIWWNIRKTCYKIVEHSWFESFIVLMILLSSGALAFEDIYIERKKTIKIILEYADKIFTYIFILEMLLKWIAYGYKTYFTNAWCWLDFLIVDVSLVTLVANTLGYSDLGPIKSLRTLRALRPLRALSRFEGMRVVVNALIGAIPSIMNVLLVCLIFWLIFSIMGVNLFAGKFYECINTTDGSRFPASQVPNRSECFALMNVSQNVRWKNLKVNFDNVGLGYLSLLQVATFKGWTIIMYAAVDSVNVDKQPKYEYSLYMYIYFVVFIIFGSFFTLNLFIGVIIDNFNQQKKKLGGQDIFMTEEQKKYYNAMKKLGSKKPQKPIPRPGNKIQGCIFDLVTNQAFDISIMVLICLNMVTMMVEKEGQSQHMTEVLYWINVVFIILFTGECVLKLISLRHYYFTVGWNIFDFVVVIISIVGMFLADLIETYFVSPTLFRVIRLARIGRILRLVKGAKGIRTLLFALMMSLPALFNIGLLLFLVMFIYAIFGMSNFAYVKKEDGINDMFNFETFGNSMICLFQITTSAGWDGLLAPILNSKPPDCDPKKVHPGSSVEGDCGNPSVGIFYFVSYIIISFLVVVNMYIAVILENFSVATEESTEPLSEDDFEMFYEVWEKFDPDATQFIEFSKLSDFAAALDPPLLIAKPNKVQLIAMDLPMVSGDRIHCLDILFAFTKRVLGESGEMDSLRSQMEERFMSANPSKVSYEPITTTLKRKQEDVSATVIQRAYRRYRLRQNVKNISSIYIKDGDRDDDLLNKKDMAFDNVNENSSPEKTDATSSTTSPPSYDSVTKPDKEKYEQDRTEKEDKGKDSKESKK
# Procedure: The hNav1.7 expressing HEK-293 cells were plated on 35 mm culture dishes pre-coated with poly-D-lysine in standard DMEM culture media (Mediatech, Inc., Herndon, Va.) and incubated in a 5% CO2 incubator at 37° C. Cultured cells were used approximately 12-48 hours after plating.
# On the day of experimentation, the 35 mm dish was placed on the stage of an inverted microscope equipped with a perfusion system that continuously perfuses the culture dish with fresh recording media. A gravity driven superfusion system was used to apply test solutions directly to the cell under evaluation. This system consists of an array of glass pipette connected to a motorized horizontal translator. The outlet of the shooter was positioned approximately 100 μm from the cell of interest.
# Whole cell currents were recorded using the whole-cell patch clamp configuration using an Axopatch 200B amplifier (Axon Instruments, Foster City Calif.), 1322A A/D converter (Axon Instruments) and pClamp software (v. 8; Axon Instruments) and stored on a personal computer. Gigaseals were formed and the whole-cell configuration was established in voltage clamp mode, and membrane currents generated by hNav1.7 were recorded in gap-free mode. Borosilicate glass pipettes have resistance values between 1.5 and 2.0 MΩ when filled with pipette solution and series resistance (<5 MΩ) was compensated 75-80%. Signals were sampled at 50 kHz and low pass filtered at 3 kHz.
# After establishing the whole-cell configuration in voltage clamp mode, voltage protocols were run to establish the 1) test potential, 2) holding potential, and 3) the conditioning potential for each cell.
# After establishing the whole-cell configuration in voltage clamp mode, a standard I-V protocol was run to determine the potential at which the maximal current (Imax) is elicited. This potential was the test potential (Vt). […] This protocol also permitted determination of the holding potential at which all channels are in the resting state.
# For compounds causing significant retardation of recovery from inactivation, an estimate of the affinity for the inactivated state of the channel (Ki) was generated using the following protocol. From the negative, no residual inactivation, holding potential, the cell was depolarized to the conditioning voltage for 2-5 seconds, returned to the negative holding potential for 10-20 ms to relieve fast inactivation and then depolarized to the test potential for ˜15 ms. This voltage protocol was repeated every 10-15 seconds, first to establish a baseline in the absence of the test compound, then in the presence of the test compound.
# After a stable baseline was established, the test compound was applied and block of the current elicited by the test pulse assessed. In some cases, multiple cumulative concentrations were applied to identify a concentration that blocked between 40-60% of this current. Washout of the compound was attempted by superfusing with control solution once steady-state block was observed. An estimate of the K, was calculated as follows: Ki=[drug]*{FR/(1−FR)}, Eq. 1
# where [drug] is the concentration of a drug, and FR=I(after drug)/I(control), Eq. 2 where I is the peak current amplitude. If multiple concentrations were used, Ki was determined from the fit of a logistic equation to FRs plotted against corresponding drug concentrations.
# In the alternative, the voltage clamp protocol to examine hNav1.7 currents was as follows. First, the standard current-voltage relationship was tested by pulsing the cell from the holding voltage (Vh) of −120 mV by a series of 5 msec long square-shaped test pulses incrementing in +10 mV steps over the membrane voltage range of −90 mV to +60 mV at the pace of stimulation of 0.5 Hz. This procedure determines the voltage that elicits the maximal current (Vmax). […]
# [1] = recombinant Nav1.7/HEK293 cells, CoroNa Green sodium dye, veratridine + scorpion venom agonists, ± SEM
# [2] = read-out: Nav1.7 Activity (μM) FLIPR assay IC50 (μM) ± SEM
# Sequence of human Nav1.7 (Q15858 with tags, fused parts or gaps limits assumed): as the sequence (Q15858 other isoform, or with tags, fused parts or gaps) above
SMILES,IC50 (human Nav1.7; [1]) [µM],Ki (hNav1.7) [µM],IC50 (human Nav1.7; [2]) [µM],Kd (hNav1.7) [µM]
"CC(=O)N[C@@H](CC(C)C)C(=O)Nc1cccc(-c2ccc(Oc3ccc(F)cc3)cc2)n1 [Compound 3, (S)-2-acetamido-N-(6-(4-(4-fluorophenoxy)phenyl)pyridin-2-yl)-4-methylpentanamide]",0.042 ± 0.02,0.194 ± 0.07,–,–
"CC(=O)N[C@@H](Cc1ccccc1)C(=O)Nc1cccc(-c2ccc(Oc3ccc(F)cc3)cc2)n1 [Compound 4, (S)-2-acetamido-N-(6-(4-(4-fluorophenoxy)phenyl)pyridin-2-yl)-3-phenylpropanamide]",0.064 ± 0.02,0.13 ± 0.03,–,–
"CC(C)C[C@H](NC(=O)c1ccccn1)C(=O)Nc1cccc(-c2ccc(Oc3ccc(F)cc3)cc2)n1 [Compound 7, (S)-N-(1-((6-(4-(4-fluorophenoxy)phenyl)pyridin-2-yl)amino)-4-methyl-1-oxopentan-2-yl)picolinamide]",–,0.059 ± 0.01,0.067 ± 0.007,18 ± 1
"CC(C)C[C@H](NC(N)=O)C(=O)Nc1cccc(-c2ccc(Oc3ccc(F)cc3)cc2)n1 [Compound 12, (S)-N-(6-(4-(4-fluorophenoxy)phenyl)pyridin-2-yl)-4-methyl-2-ureidopentanamide]",0.096 ± 0.004,0.257 ± 0.06,–,5.06
"CC(C)C[C@H](NC(=O)NC(C)(C)C)C(=O)Nc1cccc(-c2ccc(Oc3ccc(F)cc3)cc2)n1 [Compound 13, (S)-2-(3-(tert-butyl)ureido)-N-(6-(4-(4-fluorophenoxy)phenyl)pyridin-2-yl)-4-methylpentanamide]",0.075 ± 0.017,0.075 ± 0.02,–,10.2 ± 0.2
"CC(=O)N[C@@H](Cc1c[nH]cn1)C(=O)Nc1cccc(-c2ccc(Oc3ccc(F)cc3)cc2)n1 [Compound 32, (S)-2-acetamido-N-(6-(4-(4-fluorophenoxy)phenyl)pyridin-2-yl)-3-(1H-imidazol-4-yl)propanamide]",–,0.025,0.086 ± 0.02,0.58 ± 0.1
"O=C(N[C@@H](Cc1c[nH]cn1)C(=O)Nc1cccc(-c2ccc(Oc3ccc(F)cc3)cc2)n1)C1CC1 [Compound 33, (S)-N-(1-((6-(4-(4-fluorophenoxy)phenyl)pyridin-2-yl)amino)-3-(1H-imidazol-4-yl)-1-oxopropan-2-yl)cyclopropanecarboxamide]",–,0.206 ± 0.04,0.11 ± 0.02,5.31 ± 0.56
"CS(=O)(=O)N[C@@H](Cc1c[nH]cn1)C(=O)Nc1cccc(-c2ccc(Oc3ccc(F)cc3)cc2)n1 [Compound 38, (S)-N-(6-(4-(4-fluorophenoxy)phenyl)pyridin-2-yl)-3-(1H-imidazol-4-yl)-2-(methylsulfonamido)propanamide]",–,0.019 ± 0.01,0.14 ± 0.03,1.2 ± 0.31
"O=C(N[C@@H](CO)C(=O)Nc1cccc(-c2ccc(Oc3ccc(F)cc3)cc2)n1)c1cccnc1 [Compound 56, N-((S)-1-{6-[4-(4-Fluoro-phenoxy)-phenyl]-pyridin-2-ylcarbamoyl}-2-hydroxy-ethyl)-nicotinamide]",–,0.195 ± 0.07,0.14 ± 0.05,32.2 ± 8.38
"O=C(CO)N[C@@H](CO)C(=O)Nc1cccc(-c2ccc(Oc3ccc(F)cc3)cc2)n1 [Compound 60, (S)-N-{6-[4-(4-Fluoro-phenoxy)-phenyl]-pyridin-2-yl}-3-hydroxy-2-(2-hydroxy-acetylamino)-propionamide]",0.46 ± 0.08,0.113 ± 0.05,–,4.94 ± 0.81
"NC(=O)N[C@@H](CO)C(=O)Nc1cccc(-c2ccc(Oc3ccc(F)cc3)cc2)n1 [Compound 61, (S)-N-{6-[4-(4-Fluoro-phenoxy)-phenyl]-pyridin-2-yl}-3-hydroxy-2-ureido-propionamide]",–,–,0.12 ± 0.05,–
"O=C1NCCN1CCNc1cc(Cl)cc(-c2ccc(Oc3ccc(F)cc3)cc2)n1 [Compound 64, 1-(2-((4-chloro-6-(4-(4-fluorophenoxy)phenyl)pyridin-2-yl)amino)ethyl)imidazolidin-2-one]",–,–,0.12 ± 0.01,–
"Nc1nc(O)cc(C(=O)Nc2cccc(-c3ccc(Oc4ccc(F)cc4)cc3)n2)n1 [Compound 65, 2-amino-N-(6-(4-(4-fluorophenoxy)phenyl)pyridin-2-yl)-6-hydroxypyrimidine-4-carboxamide]",> 20,–,–,–
"O=C1NCCN1CCNc1cc([C@H](O)CO)cc(-c2ccc(Oc3ccc(F)cc3)cc2)n1 [Compound 66, (S)-1-(2-((4-(1,2-dihydroxyethyl)-6-(4-(4-fluorophenoxy)phenyl)pyridin-2-yl)amino)ethyl)imidazolidin-2-one]",5 ± 0.88,1.37 ± 0.17,–,–
"N[C@@H](CO)C(=O)Nc1cccc(-c2ccc(Oc3ccc(F)cc3)cc2)n1 [Compound 70, (S)-2-Amino-N-{6-[4-(4-fluoro-phenoxy)-phenyl]-pridin-2-yl}-3-hydroxy-propionamide]",0.27 ± 0.032,0.046,–,0.803 ± 0.2
"O=C(Nc1cccc(-c2ccc(Oc3ccc(C(F)(F)F)cc3)cc2)n1)C(O)CO (stereo not shown) [Compound 76, 2,3-dihydroxy-N-(6-(4-(4-(trifluoromethyl)phenoxy)phenyl)pyridin-2-yl)propanamide]",–,–,> 20,–
"CCC(=O)N[C@@H](Cc1cn(C)cn1)C(=O)Nc1cccc(-c2ccc(Oc3ccc(F)cc3)cc2)n1 [Compound 81, (S)-N-(6-(4-(4-fluorophenoxy)phenyl)pyridin-2-yl)-3-(1-methyl-1H-imidazol-4-yl)-2-propionamidopropanamide]",–,–,0.064 ± 0.01,–
"CC(C)C(=O)N[C@@H](Cc1cn(C)cn1)C(=O)Nc1cccc(-c2ccc(Oc3ccc(F)cc3)cc2)n1 [Compound 82, (S)-N-(6-(4-(4-fluorophenoxy)phenyl)pyridin-2-yl)-2-isobutyramido-3-(1-methyl-1H-imidazol-4-yl)propanamide]",–,–,0.046 ± 0.005,–
"Cn1cnc(C[C@H](NC(=O)C(C)(C)C)C(=O)Nc2cccc(-c3ccc(Oc4ccc(F)cc4)cc3)n2)c1 [Compound 83, (S)-N-(6-(4-(4-fluorophenoxy)phenyl)pyridin-2-yl)-3-(1-methyl-1H-imidazol-4-yl)-2-pivalamidopropanamide]",–,–,0.02 ± 0.002,–
"CC(=O)N[C@@H](Cc1cn(C)cn1)C(=O)Nc1cc(-c2ccc(Oc3ccc(F)cc3)cc2)ccn1 [Compound 84, (S)-2-acetamido-N-(4-(4-(4-fluorophenoxy)phenyl)pyridin-2-yl)-3-(1-methyl-1H-imidazol-4-yl)propanamide]",–,–,0.29 ± 0.025,–
"Cn1cnc(C[C@H](NC(=O)CC(F)(F)F)C(=O)Nc2cccc(-c3ccc(Oc4ccc(F)cc4)cc3)n2)c1 [Compound 86, (S)-3,3,3-trifluoro-N-(1-((6-(4-(4-fluorophenoxy)phenyl)pyridin-2-yl)amino)-3-(1-methyl-1H-imidazol-4-yl)-1-oxopropan-2-yl)propanamide]",–,–,0.084 ± 0.007,–
"CC(C)C[C@H](NC(=O)CO)C(=O)Nc1cccc(-c2ccc(Oc3ccc(F)cc3)cc2)n1 [Compound 90, (S)-N-(6-(4-(4-fluorophenoxy)phenyl)pyridin-2-yl)-2-(2-hydroxyacetamido)-4-methylpentanamide]",–,–,0.07 ± 0.012,–
"O=C(Nc1cccc(-c2ccc(Oc3ccc(C(F)(F)F)cn3)cc2)n1)C(O)CO (stereo not shown) [Compound 96, 2,3-dihydroxy-N-(6-(4-((5-(trifluoromethyl)pyridin-2-yl)oxy)phenyl)pyridin-2-yl)propanamide]",–,–,> 20,–
"Cn1cnc2ccc(C(=O)Nc3cccc(-c4ccc(Oc5ccc(F)cc5)cc4)n3)cc21 [Compound 98, N-(6-(4-(4-fluorophenoxy)phenyl)pyridin-2-yl)-1-methyl-1H-benzo[d]imidazole-6-carboxamide]",> 20,–,–,–
"Cn1cnc(C[C@H](NC(=O)Nc2cccc(-c3ccc(Oc4ccc(F)cc4)cc3)n2)C(N)=O)c1 [Compound 99, (S)-2-(3-(6-(4-(4-fluorophenoxy)phenyl)pyridin-2-yl)ureido)-3-(1-methyl-1H-imidazol-4-yl)propanamide]",–,–,0.667 ± 0.162,–
